Where two headings read alike, the source gives them in different places.
Columns and labels:
Format in all cases: cell-based
EML4-ALK = molecular target: T1, EML4-ALK (Homo sapiens, UniProt Q9UM73); assay: EML4-ALK HiBit degradation assay in CRISPR-tagged H3122 cells (Nano-Glo HiBit Lytic Detection)
T1 construct: endogenous in cells; host or cells: H3122 (NSCLC), single-cell clone after CRISPR knock-in of HiBit; the other entry of the earlier key: EML4 (Q9HC35, Echinoderm microtubule-associated protein-like 4)
Procedure: (§1) NSCLC cell line H3122 was subjected to CRISPR to express EML4-ALK with HiBit-tag on its c-terminal. Single-cell clone was selected and expanded for the following assays that monitor endogenous EML4-ALK level in high throughput manner. Cells were seeded in 384-well white Tissue-culture plates at 3000 cells/well for 8 hours. […] HiBit signal was assessed using Nano-Glo® HiBit Lytic Detection System (Promega™). Degrader-treated was normalized by DMSO-treated controls and DC50 and Dmax were generated by GraphPad Prism® 8.0.
as §1, with “its c-terminus. A single-cell” for “its c-terminal. Single-cell”, “Degrader-treated cells were” for “Degrader-treated was”
as §1, with “its C-terminus. A single-cell” for “its c-terminal. Single-cell”, “Degrader-treated cells were” for “Degrader-treated was”

H3122 cells = assay: CTG; conditions: Homo sapiens, NCI-H3122, read-out: CTG IC50
FAK = molecular target: T2, FAK (Homo sapiens, UniProt Q05397); assay: FAK degradation (H3122 cells); conditions: for Dmax: NCI-H3122, Table 3; for DC50: Table 3
T2 construct: FAK Degradation; endogenous in cells; host or cells: H3122

[1] = NCI-H3122, Table 1, first Dmax column, H3122 EML4-ALK-HiBit, 16 hours, read-out: Degradation Dmax
[2] = NCI-H3122, Table 1, second Dmax column, H3122 EML4-ALK-HiBit, 16 hours, read-out: Degradation Dmax
[3] = NCI-H3122, Table 1, average Dmax, read-out: Degradation Avg. Dmax
[4] = Table 1, first DC50 column, H3122 EML4-ALK-HiBit, 16 hours, read-out: Degradation DC50
[5] = Table 1, second DC50 column, H3122 EML4-ALK-HiBit, 16 hours, read-out: Degradation DC50
[6] = Table 1, average DC50, read-out: Degradation Avg. DC50
[7] = NCI-H3122, Table 2, first Dmax column, H3122 EML4-ALK-HiBit, 16 hours, read-out: Degradation Dmax
[8] = NCI-H3122, Table 2, average Dmax, read-out: Degradation Avg. Dmax
[9] = Table 2, first DC50 column, H3122 EML4-ALK-HiBit, 16 hours, read-out: Degradation DC50
[10] = Table 2, average DC50, read-out: Degradation Avg. DC50
[11] = NCI-H3122, Table 2, second Dmax column, H3122 EML4-ALK-HiBit, 16 hours, read-out: Degradation Dmax
[12] = Table 2, second DC50 column, H3122 EML4-ALK-HiBit, 16 hours, read-out: Degradation DC50

T2 sequence (Q05397 whole entry): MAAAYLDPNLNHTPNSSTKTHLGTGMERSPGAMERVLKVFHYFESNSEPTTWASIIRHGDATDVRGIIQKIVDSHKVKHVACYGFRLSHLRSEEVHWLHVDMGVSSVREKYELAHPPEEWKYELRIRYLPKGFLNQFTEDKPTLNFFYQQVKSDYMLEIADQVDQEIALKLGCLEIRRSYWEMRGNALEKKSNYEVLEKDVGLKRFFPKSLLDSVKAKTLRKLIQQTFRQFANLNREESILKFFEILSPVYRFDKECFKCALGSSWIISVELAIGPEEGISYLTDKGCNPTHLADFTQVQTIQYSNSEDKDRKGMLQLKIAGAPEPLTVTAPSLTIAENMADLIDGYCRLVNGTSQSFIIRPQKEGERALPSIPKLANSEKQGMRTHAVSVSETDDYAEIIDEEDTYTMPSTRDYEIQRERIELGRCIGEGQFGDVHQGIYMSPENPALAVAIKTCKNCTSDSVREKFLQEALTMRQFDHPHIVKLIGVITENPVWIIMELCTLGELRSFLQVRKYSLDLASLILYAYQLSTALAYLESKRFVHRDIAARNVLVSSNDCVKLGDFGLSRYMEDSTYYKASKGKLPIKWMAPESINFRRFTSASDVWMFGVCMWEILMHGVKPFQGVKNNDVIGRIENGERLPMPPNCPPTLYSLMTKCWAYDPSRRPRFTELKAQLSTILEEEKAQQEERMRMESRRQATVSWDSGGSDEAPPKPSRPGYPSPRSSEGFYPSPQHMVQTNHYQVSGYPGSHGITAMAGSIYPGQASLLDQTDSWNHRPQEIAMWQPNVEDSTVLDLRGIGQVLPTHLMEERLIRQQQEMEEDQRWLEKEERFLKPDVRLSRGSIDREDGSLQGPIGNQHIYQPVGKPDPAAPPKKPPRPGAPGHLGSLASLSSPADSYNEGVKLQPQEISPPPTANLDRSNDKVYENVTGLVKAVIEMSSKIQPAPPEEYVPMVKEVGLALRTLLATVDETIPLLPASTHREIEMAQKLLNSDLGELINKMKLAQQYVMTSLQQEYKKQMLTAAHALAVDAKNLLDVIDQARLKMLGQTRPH
T1 sequence (Q9UM73 with tags, fused parts or gaps): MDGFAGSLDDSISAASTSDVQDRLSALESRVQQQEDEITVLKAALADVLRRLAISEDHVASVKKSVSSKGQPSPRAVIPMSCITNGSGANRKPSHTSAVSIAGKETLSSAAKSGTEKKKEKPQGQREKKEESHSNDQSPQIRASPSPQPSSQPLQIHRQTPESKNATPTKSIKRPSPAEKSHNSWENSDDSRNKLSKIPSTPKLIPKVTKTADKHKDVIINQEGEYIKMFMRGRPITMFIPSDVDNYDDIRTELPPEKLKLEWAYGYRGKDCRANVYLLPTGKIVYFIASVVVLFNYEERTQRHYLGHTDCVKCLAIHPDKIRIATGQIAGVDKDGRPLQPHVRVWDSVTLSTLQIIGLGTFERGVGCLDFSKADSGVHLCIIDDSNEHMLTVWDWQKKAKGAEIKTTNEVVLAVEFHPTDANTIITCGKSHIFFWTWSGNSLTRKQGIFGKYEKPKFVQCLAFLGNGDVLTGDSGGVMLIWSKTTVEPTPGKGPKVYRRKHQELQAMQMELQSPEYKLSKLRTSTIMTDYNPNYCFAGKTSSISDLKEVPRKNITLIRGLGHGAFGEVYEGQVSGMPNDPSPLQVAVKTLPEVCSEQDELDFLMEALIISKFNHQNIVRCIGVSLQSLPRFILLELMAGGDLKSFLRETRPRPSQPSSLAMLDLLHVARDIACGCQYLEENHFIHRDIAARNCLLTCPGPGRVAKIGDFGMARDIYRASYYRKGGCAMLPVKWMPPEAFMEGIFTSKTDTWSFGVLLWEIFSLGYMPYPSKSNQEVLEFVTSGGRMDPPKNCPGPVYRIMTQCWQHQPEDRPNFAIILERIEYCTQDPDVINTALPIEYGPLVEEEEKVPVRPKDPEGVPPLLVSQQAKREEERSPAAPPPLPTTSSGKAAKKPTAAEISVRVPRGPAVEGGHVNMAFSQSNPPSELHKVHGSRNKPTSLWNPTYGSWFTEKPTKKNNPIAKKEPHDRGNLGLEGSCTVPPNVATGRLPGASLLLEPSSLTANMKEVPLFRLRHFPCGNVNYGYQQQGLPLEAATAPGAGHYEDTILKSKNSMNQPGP

Row | SMILES | Dmax (EML4-ALK; [1]) | Dmax (EML4-ALK; [2]) | Dmax (EML4-ALK; [3]) | DC50 (EML4-ALK; [4]) | DC50 (EML4-ALK; [5]) | DC50 (EML4-ALK; [6]) | IC50 (H3122 cells; Table 1) | other results
1 | COc1cc(CCN(C)C(=O)CCCCCNC(=O)COc2cccc3c2C(=O)N(C2CCC(=O)NC2=O)C3=O)c(C)cc1Nc1ncc(Cl)c(Nc2ccccc2S(=O)(=O)C(C)C)n1 (stereo not shown) [compound 6, N-(4-((5-chloro-4-((2-(isopropylsulfonyl)phenyl)amino)pyrimidin-2-yl)amino)-5-methoxy-2-methylphenethyl)-6-(2-((2-(2,6-dioxopiperidin-3-yl)-1,3-dioxoisoindolin-4-yl)oxy)acetamido)-N-methylhexanamide] | 34% | 30.4% | 32.2% | 124 nM | 266 nM | 195 nM | 11.6 nM | –
2 | COc1cc(C2CCN(CCCCCC#Cc3cccc4c3CN(C3CCC(=O)NC3=O)C4=O)CC2)c(C)cc1Nc1ncc(Cl)c(Nc2ccccc2S(=O)(=O)C(C)C)n1 (stereo not shown) [compound 94, 3-(4-(7-(4-(4-((5-chloro-4-((2-(isopropylsulfonyl)phenyl)amino)pyrimidin-2-yl)amino)-5-methoxy-2-methylphenyl)piperidin-1-yl)hept-1-yn-1-yl)-1-oxoisoindolin-2-yl)piperidine-2,6-dione] | – | – | – | – | – | – | – | Dmax (FAK): 86%
3 | COc1cc(CCN(C)C(=O)CCCCCCCC(=O)N[C@H](C(=O)N2C[C@H](O)C[C@H]2C(=O)N[C@@H](C)c2ccc(-c3scnc3C)cc2)C(C)(C)C)c(C)cc1Nc1ncc(Cl)c(Nc2ccccc2S(=O)(=O)C(C)C)n1 [compound 41, N^1-(4-((5-chloro-4-((2-(isopropylsulfonyl)phenyl)amino)pyrimidin-2-yl)amino)-5-methoxy-2-methylphenethyl)-N^9-((S)-1-((2S,4R)-4-hydroxy-2-(((S)-1-(4-(4-methylthiazol-5-yl)phenyl)ethyl)carbamoyl)pyrrolidin-1-yl)-3,3-dimethyl-1-oxobutan-2-yl)-N^1-methylnonanediamide] | 56.2% | – | 56.2% | 626 nM | – | 626 nM | 176 nM | –
4 | COc1cc(CCN(C)C(=O)CCOCCOCCOCC#Cc2cccc3c2C(=O)N(C2CCC(=O)NC2=O)C3=O)c(C)cc1Nc1ncc(Cl)c(Nc2ccccc2P(C)(C)=O)n1 (stereo not shown) [Compound 63] | – | – | – | – | – | – | – | Dmax (EML4-ALK; [7]): 27.3%; Dmax (EML4-ALK; [8]): 27.3%; DC50 (EML4-ALK; [9]): 3910 nM; DC50 (EML4-ALK; [10]): 3910 nM; IC50 (H3122 cells; Table 2): > 10000 nM
5 | COc1cc(CCN(C)C(=O)CCCNC(=O)COc2cccc3c2C(=O)N(C2CCC(=O)NC2=O)C3=O)c(C)cc1Nc1ncc(Cl)c(Nc2ccccc2S(=O)(=O)C(C)C)n1 (stereo not shown) [compound 5, N-(4-((5-chloro-4-((2-(isopropylsulfonyl)phenyl)amino)pyrimidin-2-yl)amino)-5-methoxy-2-methylphenethyl)-4-(2-((2-(2,6-dioxopiperidin-3-yl)-1,3-dioxoisoindolin-4-yl)oxy)acetamido)-N-methylbutanamide] | 44.5% | – | 44.5% | 239 nM | – | – | 149 nM | –
6 | COc1cc(CCNCCCC(=O)N[C@H](C(=O)N2C[C@H](O)C[C@H]2C(=O)N[C@@H](C)c2ccc(-c3scnc3C)cc2)C(C)(C)C)c(C)cc1Nc1ncc(Cl)c(Nc2ccccc2P(C)(C)=O)n1 [Compound 72] | – | – | – | – | – | – | – | Dmax (EML4-ALK; [7]): 37.9%; Dmax (EML4-ALK; [11]): 37.9%; Dmax (EML4-ALK; [8]): 37.9%; DC50 (EML4-ALK; [9]): 8820 nM; DC50 (EML4-ALK; [12]): 3590 nM; DC50 (EML4-ALK; [10]): 6200 nM; IC50 (H3122 cells; Table 2): 2950 nM
7 | COc1cc(C2CCN(CC#Cc3ccc4c(c3)CN(C3CCC(=O)NC3=O)C4=O)CC2)c(C)cc1Nc1ncc(Cl)c(Nc2ccccc2S(=O)(=O)C(C)C)n1 (stereo not shown) [compound 97, 3-(5-(3-(4-(4-((5-chloro-4-((2-(isopropylsulfonyl)phenyl)amino)pyrimidin-2-yl)amino)-5-methoxy-2-methylphenyl)piperidin-1-yl)prop-1-yn-1-yl)-1-oxoisoindolin-2-yl)piperidine-2,6-dione] | – | – | – | – | – | – | – | Dmax (FAK): 80%; DC50 (FAK): 8 nM
8 | COc1cc(CCN(C)C(=O)CCOCCOCCNc2cccc3c2C(=O)N(C2CCC(=O)NC2=O)C3=O)c(C)cc1Nc1ncc(Cl)c(Nc2ccccc2S(=O)(=O)C(C)C)n1 (stereo not shown) [compound 4, N-(4-((5-chloro-4-((2-(isopropylsulfonyl)phenyl)amino)pyrimidin-2-yl)amino)-5-methoxy-2-methylphenethyl)-3-(2-(2-((2-(2,6-dioxopiperidin-3-yl)-1,3-dioxoisoindolin-4-yl)amino)ethoxy)ethoxy)-N-methylpropanamide] | 44.8% | 33% | 38.9% | 100 nM | 34 nM | 67 nM | 25.1 nM | –
9 | COc1cc(CCNCCCCCC#Cc2cccc3c2CN(C2CCC(=O)NC2=O)C3=O)c(C)cc1Nc1ncc(Cl)c(Nc2ccccc2S(=O)(=O)C(C)C)n1 (stereo not shown) [compound 91, 3-(4-(7-((4-((5-chloro-4-((2-(isopropylsulfonyl)phenyl)amino)pyrimidin-2-yl)amino)-5-methoxy-2-methylphenethyl)amino)hept-1-yn-1-yl)-1-oxoisoindolin-2-yl)piperidine-2,6-dione] | – | – | – | – | – | – | – | Dmax (FAK): 85%; DC50 (FAK): 4 nM; IC50 (H3122 cells; Table 3): 50 nM
10 | COc1cc(CCNCCOCCOCCC(=O)N[C@H](C(=O)N2C[C@H](O)CC2C(=O)N[C@@H](C)c2ccc(-c3scnc3C)cc2)C(C)(C)C)c(C)cc1Nc1ncc(Cl)c(Nc2ccccc2S(=O)(=O)C(C)C)n1 (stereo partly shown) [Compound 46] | 58% | 34.5% | 51.3% | 1390 nM | 206 nM | 801 nM | 316 nM | –
11 | COc1cc(CCN(C)C(=O)CCOCCC(=O)N[C@H](C(=O)N2C[C@H](O)C[C@H]2C(=O)N[C@@H](C)c2ccc(-c3scnc3C)cc2)C(C)(C)C)c(C)cc1Nc1ncc(Cl)c(Nc2ccccc2S(=O)(=O)C(C)C)n1 [compound 52, (2S,4R)-1-((S)-2-(3-(3-((4-((5-chloro-4-((2-(isopropylsulfonyl)phenyl)amino)pyrimidin-2-yl)amino)-5-methoxy-2-methylphenethyl)(methyl)amino)-3-oxopropoxy)propanamido)-3,3-dimethylbutanoyl)-4-hydroxy-N-((S)-1-(4-(4-methylthiazol-5-yl)phenyl)ethyl)pyrrolidine-2-carboxamide] | 54.8% | 49.4% | 52.1% | 214 nM | 107 nM | 160 nM | 67.7 nM | –
12 | COc1cc(CCN(C)C(=O)CCCCCCCCNC(=O)COc2cccc3c2C(=O)N(C2CCC(=O)NC2=O)C3=O)c(C)cc1Nc1ncc(Cl)c(Nc2ccccc2P(C)(C)=O)n1 (stereo not shown) [Compound 59] | – | – | – | – | – | – | – | Dmax (EML4-ALK; [7]): 33.7%; Dmax (EML4-ALK; [8]): 33.7%; DC50 (EML4-ALK; [9]): 3740 nM; DC50 (EML4-ALK; [10]): 3740 nM; IC50 (H3122 cells; Table 2): 1720 nM
13 | COc1cc(CCN(C)C(=O)CCCC#Cc2cccc3c2C(=O)N(C2CCC(=O)NC2=O)C3=O)c(C)cc1Nc1ncc(Cl)c(Nc2ccccc2P(C)(C)=O)n1 (stereo not shown) [Compound 61] | – | – | – | – | – | – | – | Dmax (EML4-ALK; [7]): 29.5%; Dmax (EML4-ALK; [11]): 39.6%; Dmax (EML4-ALK; [8]): 34.5%; DC50 (EML4-ALK; [9]): 9040 nM; DC50 (EML4-ALK; [12]): 8370 nM; DC50 (EML4-ALK; [10]): 8700 nM; IC50 (H3122 cells; Table 2): > 10000 nM
14 | COc1cc(CCN(C)C(=O)CCCCCCCCNC(=O)COc2cccc3c2C(=O)N(C2CCC(=O)NC2=O)C3=O)c(C)cc1Nc1ncc(Cl)c(Nc2ccccc2S(=O)(=O)C(C)C)n1 (stereo not shown) [compound 7, N-(4-((5-chloro-4-((2-(isopropylsulfonyl)phenyl)amino)pyrimidin-2-yl)amino)-5-methoxy-2-methylphenethyl)-9-(2-((2-(2,6-dioxopiperidin-3-yl)-1,3-dioxoisoindolin-4-yl)oxy)acetamido)-N-methylnonanamide] | 50.8% | 44.8% | 47.8% | 91 nM | 36 nM | 63 nM | 15.7 nM | –
15 | COc1cc(CCNCCCC(=O)N[C@H](C(=O)N2C[C@H](O)C[C@H]2C(=O)N[C@@H](C)c2ccc(-c3scnc3C)cc2)C(C)(C)C)c(C)cc1Nc1ncc(Cl)c(Nc2ccccc2S(=O)(=O)C(C)C)n1 [Compound 43] | 38.1% | – | 38.1% | 1230 nM | – | 1230 nM | 289 nM | –
